Data reported in article PMC8533206 (Antioxidants, 2021).
Where a name gives a salt, the structure may show the parent alone.

Tests used:
[1] = target: T1, Human recombinant MAO-B (hMAO-B) (Homo sapiens, UniProt P27338); assay: MAO-B inhibition assay (Amplex Red fluorescence, benzylamine substrate); assay type: biochemical; settings: single dose 10 µM
T1 construct: purchased Sigma-Aldrich; host or cells: insect cells
T1 sequence (P27338 1-520): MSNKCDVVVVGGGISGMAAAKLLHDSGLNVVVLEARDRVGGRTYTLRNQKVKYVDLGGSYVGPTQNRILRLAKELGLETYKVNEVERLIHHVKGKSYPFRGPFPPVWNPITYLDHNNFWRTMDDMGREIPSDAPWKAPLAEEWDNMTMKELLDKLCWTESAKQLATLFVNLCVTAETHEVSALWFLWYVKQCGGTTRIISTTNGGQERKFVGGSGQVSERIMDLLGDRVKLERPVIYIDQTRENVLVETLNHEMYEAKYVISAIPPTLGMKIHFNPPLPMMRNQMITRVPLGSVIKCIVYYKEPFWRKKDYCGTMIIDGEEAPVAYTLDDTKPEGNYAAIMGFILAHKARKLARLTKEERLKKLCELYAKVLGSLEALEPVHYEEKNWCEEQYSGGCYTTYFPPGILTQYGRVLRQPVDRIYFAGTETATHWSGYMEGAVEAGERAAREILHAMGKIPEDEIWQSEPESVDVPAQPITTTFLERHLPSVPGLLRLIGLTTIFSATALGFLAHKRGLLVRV
Method: The biological evaluation of the tested compounds over both MAO-A and MAO-B was performed following the previously reported method. The MAO activity was measured in relative fluorescence units (RFU) evoked by peroxidase-catalyzed oxidation of Amplex Red® to resorufin, in which H2O2 generated by MAO reaction was used as the electron donor. Human recombinant MAO-A (hMAO-A) and MAO-B (hMAO-B) enzymes expressed in insect cells were obtained from Sigma-Aldrich. The 2 μL of test compound in DMSO (final concentration: 1–10 μM) was treated with 98 μL of hMAO enzyme solution in 50 mM sodium phosphate buffer (pH 7.4, final protein amounts: ~1.25 μg protein/well for MAO-A and ~2.5 μg protein/well for MAO-B) on 96-well black plate and incubated for 15 min at 37 °C. Then, 100 μL of reaction working solution which is a mixed solution of 400 μM Amplex Red® (Cayman, final concentration: 200 μM), 2 U/mL horseradish peroxidase (Sigma-Aldrich, final concentration: 1 U/mL) and 2 mM substrate (p-tyramine for MAO-A, benzylamine for MAO-B, Sigma-Aldrich, final concentration: 1 mM) in 50 mM sodium phosphate buffer (pH 7.4) were added and incubated for 20 min at 37 °C in the dark. The fluorescent intensity was quantified using a microplate reader (SpectraMax®i3, Molecular Device) with an excitation at 545 nm and an emission at 590 nm. The 50% inhibitory concentrations (IC50) of compounds were determined as the mean ± S.E.M. in triplicate from the dose-response inhibition curves using SigmaPlot® 13.0 (Systat Software Inc., San Jose, CA, USA).

MAO-B = settings: marketed MAO-B inhibitors; cited from earlier work

## O=C(c1cccc(F)c1)n1ccc2cc(NC(=S)NCCCl)ccc21 [Compound 5b, 1-(2-Chloroethyl)-3-(1-(3-fluorobenzoyl)-1H-indol-5-yl)thiourea]
[1]
  inhibition at 10 µM: 45.6 ± 1.2%
other
  melting point: 221.5 to 222.5 °C

## O=C(Nc1ccc(F)cc1)Nc1ccc2c(ccn2C(=O)c2cccc(F)c2)c1 [Compound 4i, 1-(1-(3-Fluorobenzoyl)-1H-indol-5-yl)-3-(4-fluorophenyl)urea]
[1]
  inhibition at 10 µM: 37 ± 0.9%
other
  melting point: 264.3 to 265.3 °C

## O=C(c1cccc(F)c1)n1ccc2cc(NC(=S)Nc3ccc(N4CCOCC4)cc3)ccc21 [Compound 5c, 1-(1-(3-Fluorobenzoyl)-1H-indol-5-yl)-3-(4-morpholinophenyl)thiourea]
[1]
  inhibition at 10 µM: 43.9 ± 1.1%
other
  melting point: 192.7 to 193.7 °C

## O=C(c1cccc(F)c1)n1ccc2cc(NC(=S)NCCN3CCOCC3)ccc21 [Compound 5d, 1-(1-(3-Fluorobenzoyl)-1H-indol-5-yl)-3-(2-morpholinoethyl)thiourea]
[1]
  inhibition at 10 µM: 46.8 ± 0.2%

## O=C(Nc1ccc(Oc2ccccc2)cc1)Nc1ccc2c(ccn2C(=O)c2cccc(F)c2)c1 [Compound 4m, 1-(1-(3-Fluorobenzoyl)-1H-indol-5-yl)-3-(4-phenoxyphenyl)urea]
[1]
  inhibition at 10 µM: 38.1 ± 0.5%
other
  melting point: 235.2 to 236.2 °C

## CCOC(=O)Nc1ccc2c(ccn2C(=O)c2cccc(F)c2)c1 [Compound 6b, Ethyl (1-(3-fluorobenzoyl)-1H-indol-5-yl)carbamate]
[1]
  inhibition at 10 µM: 33.8 ± 2.3%
other
  melting point: 136.5 to 137.5 °C

## O=C(c1cccc(F)c1)n1ccc2cc(NC(=S)Nc3cccnc3)ccc21 [Compound 5j, 1-(1-(3-Fluorobenzoyl)-1H-indol-5-yl)-3-(pyridin-3-yl)thiourea]
[1]
  inhibition at 10 µM: 51.1 ± 0.4%
other
  melting point: 144.9 to 145.9 °C

## O=C(NCCc1ccc(F)cc1)Nc1ccc2c(ccn2C(=O)c2cccc(F)c2)c1 [Compound 4l, 1-(1-(3-Fluorobenzoyl)-1H-indol-5-yl)-3-(4-fluorophenethyl)urea]
[1]
  inhibition at 10 µM: 42 ± 0.6%
other
  melting point: 231.5 to 232.5 °C

## COc1cc(NC(=S)Nc2ccc3c(ccn3C(=O)c3cccc(F)c3)c2)cc(OC)c1 [Compound 5h, 1-(3,5-Dimethoxyphenyl)-3-(1-(3-fluorobenzoyl)-1H-indol-5-yl)thiourea]
[1]
  inhibition at 10 µM: 32.5 ± 0.5%
other
  melting point: 171.1 to 172.1 °C

## COC(=O)c1ccc2c(ccn2C(=O)c2cccc(F)c2)c1 [Compound 7a, Methyl 1-(3-fluorobenzoyl)-1H-indole-5-carboxylate]
[1]
  inhibition at 10 µM: 49.8 ± 0.3%
other
  melting point: 103.4 to 104.4 °C

## COc1cc(NC(=O)Nc2ccc3c(ccn3C(=O)c3cccc(F)c3)c2)cc(OC)c1 [Compound 4g, 1-(3,5-Dimethoxyphenyl)-3-(1-(3-fluorobenzoyl)-1H-indol-5-yl)urea]
[1]
  inhibition at 10 µM: 55.7 ± 0.2%
other
  melting point: 235.6 to 236.6 °C

## CCNC(=O)Nc1ccc2c(ccn2C(=O)c2cccc(F)c2)c1 [Compound 4a, 1-Ethyl-3-(1-(3-fluorobenzoyl)-1H-indol-5-yl)urea]
[1]
  inhibition at 10 µM: 46.2 ± 1.1%

## CCOC(=O)C(=O)Nc1ccc2c(ccn2C(=O)c2cccc(F)c2)c1 [Compound 6c, Ethyl 2-((1-(3-fluorobenzoyl)-1H-indol-5-yl)amino)-2-oxoacetate]
[1]
  inhibition at 10 µM: 35.5 ± 1.5%

## O=C(c1cccc(F)c1)n1ccc2cc(NC(=S)Nc3ccc([N+](=O)[O-])cc3)ccc21 [Compound 5g, 1-(1-(3-Fluorobenzoyl)-1H-indol-5-yl)-3-(4-nitrophenyl)thiourea]
[1]
  inhibition at 10 µM: 30.6 ± 0.9%

## O=C(Nc1ccc(Cl)c(Cl)c1)Nc1ccc2c(ccn2C(=O)c2cccc(F)c2)c1 [Compound 4j, 1-(3,4-Dichlorophenyl)-3-(1-(3-fluorobenzoyl)-1H-indol-5-yl)urea]
[1]
  inhibition at 10 µM: 53.5 ± 0.3%

## O=C(Nc1ccc(F)c(Cl)c1)c1ccc2[nH]ccc2c1 [Compound 8c, N-(3-chloro-4-fluorophenyl)-1H-indole-5-carboxamide]
[1]
  inhibition at 10 µM: 34.2 ± 0.2%

## O=C(Nc1ccc2c(ccn2C(=O)c2cccc(F)c2)c1)NC1CCCCC1 [Compound 4d, 1-Cyclohexyl-3-(1-(3-fluorobenzoyl)-1H-indol-5-yl)urea]
[1]
  inhibition at 10 µM: 44 ± 0.8%
other
  melting point: 222.7 to 223.7 °C

## O=C(NCc1ccc2c(c1)OCO2)c1ccc2[nH]ccc2c1 [Compound 8d, N-(benzo[d][1,3]dioxol-5-ylmethyl)-1H-indole-5-carboxamide]
[1]
  inhibition at 10 µM: 15.3 ± 0.8%
other
  melting point: 131.6 to 132.6 °C

## O=C(Nc1ccc(Cl)c(C(F)(F)F)c1)Nc1ccc2c(ccn2C(=O)c2cccc(F)c2)c1 [Compound 4k, 1-(4-Chloro-3-(trifluoromethyl)phenyl)-3-(1-(3-fluorobenzoyl)-1H-indol-5-yl)urea]
[1]
  inhibition at 10 µM: 42.1 ± 1.7%
other
  melting point: 210.9 to 211.9 °C

## O=C(NCCCl)Nc1ccc2c(ccn2C(=O)c2cccc(F)c2)c1 [Compound 4c, 1-(2-Chloroethyl)-3-(1-(3-fluorobenzoyl)-1H-indol-5-yl)urea]
[1]
  inhibition at 10 µM: 26.6 ± 0.6%
other
  melting point: 191.3 to 192.3 °C

## COc1ccc(NC(=O)Nc2ccc3c(ccn3C(=O)c3cccc(F)c3)c2)cc1 [Compound 4f, 1-(1-(3-Fluorobenzoyl)-1H-indol-5-yl)-3-(4-methoxyphenyl)urea]
[1]
  inhibition at 10 µM: 32.5 ± 1.4%

## CCOC(=O)NC(=S)Nc1ccc2c(ccn2C(=O)c2cccc(F)c2)c1 [Compound 5a, 1-Ethoxycarbonyl-3-(1-(3-fluorobenzoyl)-1H-indol-5-yl)thiourea]
[1]
  inhibition at 10 µM: 15.5 ± 1.1%
other
  melting point: 199.4 to 200.4 °C

## O=C(Nc1ccc2c(ccn2C(=O)c2cccc(F)c2)c1)c1ccc(Cl)c(Cl)c1 [Compound 6d, 3,4-Dichloro-N-(1-(3-fluorobenzoyl)-1H-indol-5-yl)benzamide]
[1]
  inhibition at 10 µM: 53 ± 0.3%
other
  melting point: 237.6 to 238.6 °C

## CCOC(=O)CNC(=O)Nc1ccc2c(ccn2C(=O)c2cccc(F)c2)c1 [Compound 4b, Ethyl ((1-(3-fluorobenzoyl)-1H-indol-5-yl)carbamoyl)glycinate]
[1]
  inhibition at 10 µM: 9.9 ± 1.5%
other
  melting point: 203.3 to 204.3 °C

## O=C(Nc1cc(Cl)cc(Cl)c1)Nc1ccc2c(ccn2C(=O)c2cccc(F)c2)c1 [Compound 4h, 1-(3,5-Dichlorophenyl)-3-(1-(3-fluorobenzoyl)-1H-indol-5-yl)urea]
[1]
  inhibition at 10 µM: 38.6 ± 1.6%

## O=C(Nc1ccc2c(ccn2C(=O)c2cccc(F)c2)c1)c1coc2ccccc2c1=O [Compound 6e, N-(1-(3-fluorobenzoyl)-1H-indol-5-yl)-4-oxo-4H-chromene-3-carboxamide]
[1]
  inhibition at 10 µM: 59.6 ± 0.3%
other
  melting point: 226.6 to 227.6 °C

## O=C(Nc1ccc2c(ccn2C(=O)c2cccc(F)c2)c1)c1ccnc([N+](=O)[O-])c1 [Compound 6a, N-(1-(3-Fluorobenzoyl)-1H-indol-5-yl)-2-nitroisonicotinamide]
[1]
  inhibition at 10 µM: 26.8 ± 1.3%
other
  melting point: 278.1 to 279.1 °C

## O=C(Nc1ccc([N+](=O)[O-])cc1)Nc1ccc2c(ccn2C(=O)c2cccc(F)c2)c1 [Compound 4e, 1-(1-(3-Fluorobenzoyl)-1H-indol-5-yl)-3-(4-nitrophenyl)urea]
[1]
  inhibition at 10 µM: 47.9 ± 1.6%
other
  melting point: 249.1 to 250.1 °C

## O=C(c1cccc(F)c1)n1ccc2cc(NC(=S)NCc3ccco3)ccc21 [Compound 5f, 1-(1-(3-Fluorobenzoyl)-1H-indol-5-yl)-3-(furan-2-ylmethyl)thiourea]
[1]
  inhibition at 10 µM: 34.1 ± 0.7%
other
  melting point: 152.6 to 153.6 °C

## O=C(c1cccc(F)c1)n1ccc2cc(NC(=S)NCCN3CCCCC3)ccc21 [Compound 5e, 1-(1-(3-Fluorobenzoyl)-1H-indol-5-yl)-3-(2-(piperidin-1-yl)ethyl)thiourea]
[1]
  inhibition at 10 µM: 44.7 ± 0.5%
other
  melting point: 187.1 to 188.1 °C

## O=C(Nc1ccc(N2CCOCC2)cc1)Nc1ccc2c(ccn2C(=O)c2cccc(F)c2)c1 [Compound 4n, 1-(1-(3-Fluorobenzoyl)-1H-indol-5-yl)-3-(4-morpholinophenyl)urea]
[1]
  inhibition at 10 µM: 32.9 ± 0.3%

## O=C(c1cccc(F)c1)n1ccc2cc(NC(=S)Nc3ccc(Cl)c(Cl)c3)ccc21 [Compound 5i, 1-(3,4-Dichlorophenyl)-3-(1-(3-fluorobenzoyl)-1H-indol-5-yl)thiourea]
[1]
  inhibition at 10 µM: 59.8 ± 0.4%
other
  melting point: 193.4 to 194.4 °C
